This is an account of results in article PMC10456528, “Purification and Molecular Docking Study on the Angiotensin I-Converting Enzyme (ACE)-Inhibitory Peptide Isolated from Hydrolysates of the Deep-Sea Mussel Gigantidas vrijenhoeki” (Marine Drugs, 2023).

Ends that are not written are not given here. Peptide text beside a SMILES is read from it.

First the molecules themselves.
B1: G. vrijenhoeki peptide (GVP)-10 (peptide)
peptide: KLLWNGKM
B2: G. vrijenhoeki peptide (GVP)-1 (peptide)
peptide: KLQE
B3: G. vrijenhoeki peptide (GVP)-3 (peptide)
peptide: KVHL
B4: G. vrijenhoeki peptide (GVP)-2 (peptide)
peptide: KVLH
B5: G. vrijenhoeki peptide (GVP)-11 (peptide)
peptide: YALPHAL
B6: G. vrijenhoeki peptide (GVP)-8 (peptide)
peptide: PGLADMR
B7: G. vrijenhoeki peptide (GVP)-6 (peptide)
peptide: LNSL
B8: G. vrijenhoeki peptide (GVP)-7 (peptide)
peptide: ALRPKF
B9: G. vrijenhoeki peptide (GVP)-5 (peptide)
peptide: PSLVG

The first test concerns the target T1, angiotensin I-converting enzyme (ACE) (Homo sapiens, UniProt P12821). Nature of the test: ACE inhibitory activity assay (Dojindo ACE Kit). Type of test: biochemical. The arrangement: purchased Dojindo Laboratories, Kumamoto, Japan. The note with it: synthetic peptides with the sequences identified in <1 kDa fraction; triplicate experiments. The procedure: ACE inhibitory activity was measured using the Dojindo ACE Kit-WET kit (Dojindo Laboratories, Kumamoto, Japan), according to the manufacturer’s instructions. The ACE-inhibitory activity was calculated as follows: ACE inhibitory activity (%)=Acontrol−Asample/Acontrol−Ablank×100% where Acontrol is the absorbance of the positive control, Ablank is the absorbance of the blank containing distilled water, and Asample is the absorbance of the sample. The IC50 value was determined as the concentration of inhibitor required to inhibit 50% of the ACE activity.
Target sequence in this assay (P12821 30-1306, species assumed): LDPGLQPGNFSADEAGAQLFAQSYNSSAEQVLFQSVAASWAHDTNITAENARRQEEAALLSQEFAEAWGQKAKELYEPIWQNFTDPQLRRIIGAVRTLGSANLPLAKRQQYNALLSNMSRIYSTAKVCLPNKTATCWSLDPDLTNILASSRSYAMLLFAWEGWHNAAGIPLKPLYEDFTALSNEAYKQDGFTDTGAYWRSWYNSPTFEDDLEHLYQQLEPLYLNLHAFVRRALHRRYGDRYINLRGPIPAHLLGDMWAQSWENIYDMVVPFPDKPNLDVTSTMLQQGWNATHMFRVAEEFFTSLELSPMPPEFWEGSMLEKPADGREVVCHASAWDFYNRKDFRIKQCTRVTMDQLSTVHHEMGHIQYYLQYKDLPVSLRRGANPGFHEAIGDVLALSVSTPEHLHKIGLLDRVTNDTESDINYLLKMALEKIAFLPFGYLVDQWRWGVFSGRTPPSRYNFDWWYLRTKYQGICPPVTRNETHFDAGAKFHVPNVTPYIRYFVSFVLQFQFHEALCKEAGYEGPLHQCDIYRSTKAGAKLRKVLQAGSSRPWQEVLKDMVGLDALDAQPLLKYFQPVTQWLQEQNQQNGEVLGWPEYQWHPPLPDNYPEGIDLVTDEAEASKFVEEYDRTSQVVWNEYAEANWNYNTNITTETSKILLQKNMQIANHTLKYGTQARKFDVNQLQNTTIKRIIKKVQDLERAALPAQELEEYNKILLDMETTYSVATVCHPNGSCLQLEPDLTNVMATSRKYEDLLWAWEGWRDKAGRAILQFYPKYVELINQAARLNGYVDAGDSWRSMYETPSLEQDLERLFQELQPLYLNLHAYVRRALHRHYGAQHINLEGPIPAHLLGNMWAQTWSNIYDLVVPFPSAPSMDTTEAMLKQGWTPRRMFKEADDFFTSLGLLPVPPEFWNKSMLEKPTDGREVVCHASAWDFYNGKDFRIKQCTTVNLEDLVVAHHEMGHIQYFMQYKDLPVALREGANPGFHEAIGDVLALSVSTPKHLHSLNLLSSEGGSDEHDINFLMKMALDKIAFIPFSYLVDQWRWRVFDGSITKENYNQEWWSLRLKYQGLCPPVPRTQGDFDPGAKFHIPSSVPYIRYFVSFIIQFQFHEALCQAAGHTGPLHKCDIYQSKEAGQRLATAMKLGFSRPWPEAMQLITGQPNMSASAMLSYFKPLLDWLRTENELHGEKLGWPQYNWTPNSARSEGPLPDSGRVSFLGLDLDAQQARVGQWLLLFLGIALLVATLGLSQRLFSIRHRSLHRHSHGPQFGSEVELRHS
The term IC50 denotes the concentration at which inhibition is half-maximal. With `CC(C)C[C@H](NC(=O)[C@@H](N)CCCCN)C(=O)N[C@@H](CCC(N)=O)C(=O)N[C@@H](CCC(=O)O)C(=O)O` [GVP-1, KLQE] (H-KLQE-OH), 2960 ± 165 nM corresponded to half-maximal inhibition (IC50).

Molecule `CC(C)C[C@H](NC(=O)[C@@H](NC(=O)[C@@H](N)CCCCN)C(C)C)C(=O)N[C@@H](Cc1c[nH]cn1)C(=O)O` [GVP-2, KVLH] (H-KVLH-OH) registered an IC50 of 162 ± 2 nM.

For the molecule `CC(C)C[C@H](NC(=O)[C@H](Cc1c[nH]cn1)NC(=O)[C@@H](NC(=O)[C@@H](N)CCCCN)C(C)C)C(=O)O` [GVP-3, KVHL] (H-KVHL-OH), the IC50 is 292 ± 13 nM. This IC50 lies about 1.8-fold higher than the previous one.

With `CC(C)C[C@H](N)C(=O)N[C@H](C(=O)N[C@@H](CCCNC(=N)N)C(=O)O)C(C)C` [GVP-4, LVR] (H-Leu-Val-Arg-OH; N-terminus and C-terminus assumed), half-maximal inhibition (IC50) required 67 ± 5 nM.

On to `CC(C)C[C@H](NC(=O)[C@H](CO)NC(=O)[C@H](CC(N)=O)NC(=O)[C@@H](N)CC(C)C)C(=O)O` [GVP-6, LNSL] (H-LNSL-OH; N-terminus and C-terminus assumed), for which inhibition was half-maximal at 1390 ± 11 nM (IC50).

On to `CC(C)C[C@H](NC(=O)[C@@H](N)CC(C)C)C(=O)N[C@@H](CCCNC(=N)N)C(=O)O` [GVP-9, LLR], for which half-maximal inhibition (IC50) was put at 435 ± 7 nM. This IC50 lies about 3.2-fold lower than the previous one.

Molecule ALRPKF [GVP-7, ALRPKF] showed an IC50 of 24 ± 17 nM.

On to KLLWNGKM [GVP-10, KLLWNGKM], for which the concentration for half-maximal inhibition (IC50) is 7 ± 2 nM.

For PGLADMR [GVP-8, PGLADMR], it took 513 ± 2 nM to reach half-maximal inhibition (IC50). This IC50 is about 73-fold higher than that of the molecule before.

Consider PSLVG [GVP-5, PSLVG], for which half-maximal inhibition (IC50) required 582 ± 8 nM.

YALPHAL [GVP-11, YALPHAL] showed an IC50 of 795 ± 15 nM.

Another test deals with T1, angiotensin I-converting enzyme (ACE).
Experiment: not given
Conditions: not given
Target sequence in this assay (P12821 30-1256): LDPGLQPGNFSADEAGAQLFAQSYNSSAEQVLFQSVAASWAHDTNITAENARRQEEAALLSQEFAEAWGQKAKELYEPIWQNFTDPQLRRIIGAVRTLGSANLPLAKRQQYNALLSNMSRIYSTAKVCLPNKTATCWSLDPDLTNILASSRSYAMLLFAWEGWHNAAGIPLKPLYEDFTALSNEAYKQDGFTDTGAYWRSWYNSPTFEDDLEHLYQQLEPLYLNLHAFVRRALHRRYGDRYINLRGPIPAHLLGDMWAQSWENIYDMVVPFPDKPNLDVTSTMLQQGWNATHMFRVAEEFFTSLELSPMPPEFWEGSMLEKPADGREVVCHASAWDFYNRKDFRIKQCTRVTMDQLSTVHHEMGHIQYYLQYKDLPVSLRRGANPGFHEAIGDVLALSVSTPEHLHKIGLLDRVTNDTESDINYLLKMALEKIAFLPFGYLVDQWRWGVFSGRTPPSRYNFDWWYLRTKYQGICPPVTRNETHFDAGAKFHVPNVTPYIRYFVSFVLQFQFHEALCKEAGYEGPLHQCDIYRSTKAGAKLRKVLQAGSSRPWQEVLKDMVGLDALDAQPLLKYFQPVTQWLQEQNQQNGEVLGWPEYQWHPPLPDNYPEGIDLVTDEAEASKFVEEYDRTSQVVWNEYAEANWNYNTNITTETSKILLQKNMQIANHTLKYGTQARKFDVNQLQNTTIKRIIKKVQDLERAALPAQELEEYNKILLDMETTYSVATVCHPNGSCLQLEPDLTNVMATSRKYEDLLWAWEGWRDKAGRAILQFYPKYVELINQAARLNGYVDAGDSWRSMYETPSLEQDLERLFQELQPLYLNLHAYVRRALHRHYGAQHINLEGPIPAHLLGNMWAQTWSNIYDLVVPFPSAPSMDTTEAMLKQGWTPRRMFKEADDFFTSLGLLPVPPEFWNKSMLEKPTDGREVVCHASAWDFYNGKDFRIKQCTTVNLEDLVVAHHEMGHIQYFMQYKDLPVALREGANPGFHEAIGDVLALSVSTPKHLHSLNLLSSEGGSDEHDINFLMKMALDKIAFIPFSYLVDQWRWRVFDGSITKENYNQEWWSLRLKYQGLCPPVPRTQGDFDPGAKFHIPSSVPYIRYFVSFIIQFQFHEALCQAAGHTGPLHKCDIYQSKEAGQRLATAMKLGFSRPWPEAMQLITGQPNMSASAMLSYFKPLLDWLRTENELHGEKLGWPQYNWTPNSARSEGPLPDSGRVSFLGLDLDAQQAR
Take B1: the IC50 of ACE inhibitory activity (enzyme activity, Dojindo ACE kit, synthetic peptide) is 0.007 µM.

Consider B2, for which the IC50 of ACE inhibitory activity (enzyme activity, Dojindo ACE kit, synthetic peptide) amounted to 2.96 µM.

With B3, the IC50 of ACE inhibitory activity (enzyme activity, Dojindo ACE kit, synthetic peptide) amounted to 0.292 µM.

The molecule B4 had an IC50 of ACE inhibitory activity (enzyme activity, Dojindo ACE kit, synthetic peptide) of 0.162 µM.

The molecule B5 showed an IC50 of ACE inhibitory activity (enzyme activity, Dojindo ACE kit, synthetic peptide) of 0.795 µM.

In turn, B6 gave an IC50 of ACE inhibitory activity (enzyme activity, Dojindo ACE kit, synthetic peptide) of 0.513 µM.

In the case of B7, the IC50 of ACE inhibitory activity (enzyme activity, Dojindo ACE kit, synthetic peptide) was 1.39 µM.

With B8, the IC50 of ACE inhibitory activity (enzyme activity, Dojindo ACE kit, synthetic peptide) stood at 0.024 µM.

B9: the IC50 of ACE inhibitory activity (enzyme activity, Dojindo ACE kit, synthetic peptide) came to 0.582 µM.
